# Paper PMC11845761, “Intestinal human carboxylesterase 2 (CES2) expression rescues drug metabolism and most metabolic syndrome phenotypes in global Ces2 cluster knockout mice” (Acta Pharmacologica Sinica, 2024)
# Where two headings read alike, the source gives them in different places.
# Assays:
# [1] = Tissue concentrations of capecitabine and its metabolites 2 h after oral capecitabine in CES2-modified mice; assay type: in vivo, mouse; conditions: oral capecitabine 500 mg/kg; for concentration at 2 h: female, mouse, oral, 500 mg/kg
# Procedure: (§1) For capecitabine 2-h experiments, 6–7 female mice received oral capecitabine (500 mg/kg, 10 μL/g), and tail vein blood samples were collected at 0.125, 0.25, 0.5 and 1 h after drug administration. For the vinorelbine 4-h experiment, 6-7 male mice received vinorelbine intravenously (10 mg/kg, 5 μL/g) or orally (10 mg/kg, 10 μL/g) using a blunt-ended needle. Tail vein blood samples were collected at 0.125, 0.25, 0.5, 1 and 2 h after drug administration. […] At the last time point in each experiment (2 or 4 h), mice were anesthetized with 5% isoflurane and blood was collected by cardiac puncture. […] Plasma was isolated from the blood by centrifugation at 9000 × g for 6 min at 4 °C, and the plasma fraction was collected and stored at −30 °C until analysis.
# (§2) Concentrations of capecitabine (and its metabolites) and vinorelbine (and its metabolite) in mouse plasma samples and organ homogenates were determined using two independent validated high-performance liquid chromatography-tandem mass spectrometry assays.
# (§3) Pharmacokinetic parameters were calculated by non-compartmental methods using the PK solver software. […] Differences were considered statistically significant when P < 0.05. All data are presented as mean ± SD.
# [2] = Plasma pharmacokinetics of capecitabine and its metabolites after oral capecitabine in CES2-modified mice; assay type: in vivo, mouse; conditions: oral capecitabine 500 mg/kg; for AUC(0-t) / Cmax / Tmax / AUC0-2h / AUC0-2h ratio (metabolite/capecitabine): plasma; for AUC(0-t): read-out: AUC0-2h
# Procedure: as §1, §2, §3
# [3] = irinotecan i.v. or orally administered; Ces2^–/– vs wild-type mice; data not shown
compound,measurement,setting,value
"CCCCCOC(=O)Nc1nc(=O)n([C@@H]2O[C@H](C)[C@@H](O)[C@H]2O)cc1F [Capecitabine, reference compound]","liver concentration, fold greater in Ces2^–/– than in wild-type mice",[1]; female mice,13.8 fold
same,"liver concentration, reduction in Ces2^–/–A compared with Ces2^–/– mice",[1]; female mice,74.2%
same,"liver concentration, reduction in Ces2^–/–V compared with Ces2^–/– mice",[1]; female mice,63.5%
same,"small intestine concentration, fold higher in Ces2^-/- than in wild-type mice",[1]; female mice,10.6 fold
same,concentration at 2 h,"[1]; Ces2^-/-, liver, female Ces2^–/– mice, read-out: Cliver (liver concentration)",18000 ± 8740 ng/g
same,concentration at 2 h,"[1]; Ces2^-/-, small intestine, female Ces2^–/– mice, read-out: CSI (small intestine tissue concentration)",17200 ± 6550 ng/g
same,concentration at 2 h,"[1]; Ces2^-/-A, liver, female Ces2^–/–A mice, read-out: Cliver (liver concentration)",4650 ± 1760 ng/g
same,concentration at 2 h,"[1]; Ces2^-/-A, small intestine tissue, female Ces2^–/–A mice, read-out: CSI (small intestine tissue concentration)",15200 ± 6020 ng/g
same,concentration at 2 h,"[1]; Ces2^-/-V, liver, female Ces2^–/–V mice, read-out: Cliver (liver concentration)",6570 ± 3220 ng/g
same,concentration at 2 h,"[1]; Ces2^-/-V, small intestine, female Ces2^–/–V mice, read-out: CSI (small intestine tissue concentration)",2410 ± 1190 ng/g
same,concentration at 2 h,"[1]; Ces2^–/– (Ces2 cluster knockout), small intestine, female Ces2^–/– mice, read-out: CSI (small intestine tissue concentration)",17200 ng/g
same,concentration at 2 h,"[1]; colon, female Ces2^–/– mice, read-out: Ccolon (colon concentration)",14300 ± 9020 ng/g
same,concentration at 2 h,"[1]; colon, female Ces2^–/–A mice, read-out: Ccolon (colon concentration)",8780 ± 1630 ng/g
same,concentration at 2 h,"[1]; colon, female Ces2^–/–V mice, read-out: Ccolon (colon concentration)",4970 ± 2980 ng/g
same,concentration at 2 h,"[1]; colon, female wild-type mice, read-out: Ccolon (colon concentration)",2250 ± 712 ng/g
same,concentration at 2 h,"[1]; liver, female wild-type mice, read-out: Cliver (liver concentration)",1300 ± 522 ng/g
same,concentration at 2 h,"[1]; small intestine contents, female Ces2^–/– mice, read-out: CSIC (small intestine contents concentration)",97200 ± 37200 ng/g
same,concentration at 2 h,"[1]; small intestine contents, female Ces2^–/–A mice, read-out: CSIC (small intestine contents concentration)",88500 ± 25100 ng/g
same,concentration at 2 h,"[1]; small intestine contents, female Ces2^–/–V mice, read-out: CSIC (small intestine contents concentration)",49700 ± 45900 ng/g
same,concentration at 2 h,"[1]; small intestine contents, female wild-type mice, read-out: CSIC (small intestine contents concentration)",26500 ± 16300 ng/g
same,concentration at 2 h,"[1]; small intestine tissue, female wild-type mice, read-out: CSI (small intestine tissue concentration)",1630 ± 865 ng/g
same,concentration at 2 h,"[1]; small intestine, female Ces2^–/–V mice, read-out: CSI (small intestine tissue concentration)",2410 ± 1190 ng/g
same,"plasma AUC0-2h, fold greater in Ces2^–/– than in wild-type mice",[2]; female mice,5.3 fold
same,"plasma AUC0-2h, lower in Ces2^–/–V than in Ces2^–/– mice",[2]; female mice,44%
same,AUC(0-t),"[2]; female, Ces2^–/– (Ces2 cluster knockout), mouse, po, 500 mg/kg, female Ces2^–/– mice",31300 ± 16600 ng·h/mL
same,Cmax,"[2]; female, Ces2^–/– (Ces2 cluster knockout), mouse, po, 500 mg/kg, female Ces2^–/– mice, read-out: Cmax",42600 ± 17800 ng/mL
same,Tmax,"[2]; female, Ces2^–/– (Ces2 cluster knockout), mouse, po, 500 mg/kg, female Ces2^–/– mice, read-out: Tmax",12.6 ± 3.6 min
same,AUC(0-t),"[2]; female, mouse, po, 500 mg/kg, female Ces2^–/–A mice",31500 ± 19200 ng·h/mL
same,Cmax,"[2]; female, mouse, po, 500 mg/kg, female Ces2^–/–A mice, read-out: Cmax",47000 ± 34100 ng/mL
same,Tmax,"[2]; female, mouse, po, 500 mg/kg, female Ces2^–/–A mice, read-out: Tmax",10.2 ± 4.2 min
same,AUC(0-t),"[2]; female, mouse, po, 500 mg/kg, female Ces2^–/–V mice",17500 ± 9710 ng·h/mL
same,Cmax,"[2]; female, mouse, po, 500 mg/kg, female Ces2^–/–V mice, read-out: Cmax",23400 ± 14100 ng/mL
same,Tmax,"[2]; female, mouse, po, 500 mg/kg, female Ces2^–/–V mice, read-out: Tmax",9.6 ± 3.6 min
same,AUC(0-t),"[2]; female, mouse, po, 500 mg/kg, female wild-type mice",5850 ± 1380 ng·h/mL
same,Cmax,"[2]; female, mouse, po, 500 mg/kg, female wild-type mice, read-out: Cmax",12200 ± 3800 ng/mL
same,Tmax,"[2]; female, mouse, po, 500 mg/kg, female wild-type mice, read-out: Tmax",11.4 ± 4.2 min
NCC(F)C(=O)O (centres unmarked) [FBAL],CSI (small intestine tissue concentration),[1]; female Ces2^–/– mice,1239 ± 335 ng/g
same,Ccolon (colon concentration),[1]; female Ces2^–/– mice,1355 ± 281 ng/g
same,Cliver (liver concentration),[1]; female Ces2^–/– mice,59839 ± 11722 ng/g
same,Colon concentration ratio (metabolite/capecitabine),[1]; female Ces2^–/– mice,0.12 ± 0.05
same,Liver concentration ratio (metabolite/capecitabine),[1]; female Ces2^–/– mice,4.2 ± 2.7
same,Small intestine concentration ratio (metabolite/capecitabine),[1]; female Ces2^–/– mice,0.08 ± 0.05
same,CSI (small intestine tissue concentration),[1]; female Ces2^–/–A mice,2193 ± 960 ng/g
same,Ccolon (colon concentration),[1]; female Ces2^–/–A mice,2105 ± 600 ng/g
same,Cliver (liver concentration),[1]; female Ces2^–/–A mice,102959 ± 17203 ng/g
same,Colon concentration ratio (metabolite/capecitabine),[1]; female Ces2^–/–A mice,0.24 ± 0.02
same,Liver concentration ratio (metabolite/capecitabine),[1]; female Ces2^–/–A mice,25 ± 11
same,Small intestine concentration ratio (metabolite/capecitabine),[1]; female Ces2^–/–A mice,0.15 ± 0.04
same,CSI (small intestine tissue concentration),[1]; female Ces2^–/–V mice,1830 ± 655 ng/g
same,Ccolon (colon concentration),[1]; female Ces2^–/–V mice,2080 ± 446 ng/g
same,Cliver (liver concentration),[1]; female Ces2^–/–V mice,77125 ± 16534 ng/g
same,Colon concentration ratio (metabolite/capecitabine),[1]; female Ces2^–/–V mice,0.60 ± 0.36^###^
same,Liver concentration ratio (metabolite/capecitabine),[1]; female Ces2^–/–V mice,18 ± 16
same,Small intestine concentration ratio (metabolite/capecitabine),[1]; female Ces2^–/–V mice,1.5 ± 2.0^###^^^
same,CSI (small intestine tissue concentration),[1]; female wild-type mice,1174 ± 174 ng/g
same,Ccolon (colon concentration),[1]; female wild-type mice,1322 ± 249 ng/g
same,Cliver (liver concentration),[1]; female wild-type mice,55840 ± 13861 ng/g
same,Colon concentration ratio (metabolite/capecitabine),[1]; female wild-type mice,0.62 ± 0.16
same,Liver concentration ratio (metabolite/capecitabine),[1]; female wild-type mice,48 ± 19
same,Small intestine concentration ratio (metabolite/capecitabine),[1]; female wild-type mice,0.86 ± 0.38
same,AUC0-2h,[2]; female Ces2^–/– mice,1833 ± 504 ng·h/mL
same,AUC0-2h ratio (metabolite/capecitabine),[2]; female Ces2^–/– mice,0.07 ± 0.04
same,Cmax,[2]; female Ces2^–/– mice,1684 ± 597 ng/mL
same,Tmax,[2]; female Ces2^–/– mice,120 ± 0 min
same,AUC0-2h,[2]; female Ces2^–/–A mice,2910 ± 671 ng·h/mL
same,AUC0-2h ratio (metabolite/capecitabine),[2]; female Ces2^–/–A mice,0.12 ± 0.06
same,Cmax,[2]; female Ces2^–/–A mice,2923 ± 760 ng/mL
same,Tmax,[2]; female Ces2^–/–A mice,108 ± 24 min
same,AUC0-2h,[2]; female Ces2^–/–V mice,2874 ± 659 ng·h/mL
same,AUC0-2h ratio (metabolite/capecitabine),[2]; female Ces2^–/–V mice,0.20 ± 0.09
same,Cmax,[2]; female Ces2^–/–V mice,2606 ± 698 ng/mL
same,Tmax,[2]; female Ces2^–/–V mice,120 ± 0 min
same,AUC0-2h,[2]; female wild-type mice,1966 ± 158 ng·h/mL
same,AUC0-2h ratio (metabolite/capecitabine),[2]; female wild-type mice,0.35 ± 0.08
same,Cmax,[2]; female wild-type mice,1755 ± 308 ng/mL
same,Tmax,[2]; female wild-type mice,120 ± 0 min
CCc1c2c(nc3ccc(O)cc13)-c1cc3c(c(=O)n1C2)COC(=O)[C@]3(O)CC [SN-38],effect of mCes2 cluster knockout on plasma levels,[3],no significant effect
